Reference: US7579018B2, “Microbiological control in aqueous systems” (Albemarle Corporation, priority 2000, dated 2009)

How the values were obtained:
planktonic bacteria = test: Cooling tower field test with floater dispenser, Example 5: planktonic plate counts; conditions: substantially continuous dosing from floater, 0.15 to 0.2 ppm of free halogen as Br2
Method: Another field test was carried out in the cooling tower described in Example 2 above. In this field test the cooling tower water was substantially continuously dosed with DBDMH using a Rainbow Lifeguard swimming pool floater having a capacity of about 3 lbs of granules, with the slots in the wide open position. This floater, charged with DBDMH granules, was placed and secured in the tower basin, a very convenient location for addition of the biocide when needed. The floater delivered a dose of “free halogen” to maintain a dosage level in the range of 0.15 to 0.2 ppm of free halogen as Br2.
The granules of DBDMH used in Examples 2-5 have an average size in the range of about 40 U.S. standard mesh size to about ⅜-inch, and an average crush strength of at least 15 pounds per inch of thickness. The combination of the low water solubility of DBDMH coupled with its use in granular form provided a slow but continuous or substantially continuous automatic dosing of the cooling tower water so that a biocidally effective level of free bromine was maintained in the water during the entire test, with relatively infrequent refilling of the dispenser being required.

[1] = “free chlorine” (Hach Method 8021) and “total chlorine” (Hach Method 8167) in dosed simulated cooling water, Example 1; format: physicochemical; conditions: for Free Cl2 / Total Cl2 / % hydrolysis to Free Cl2: simulated cooling water pH 9.1, 38° C.
From the text: The standard tests for determination of “free chlorine” and “total chlorine” are based on classical test procedures devised by Palin in 1974. See A. T. Palin, “Analytical Control of Water Disinfection With Special Reference to Differential DPD Methods For Chlorine, Chlorine Dioxide, Bromine, Iodine and Ozone”, J. Inst. Water Eng., 1974, 28, 139. While there are various modernized versions of the Palin procedures, the version of the tests for “free chlorine” and “total chlorine” used and to be used as the standard in connection with this invention, are fully described in Hach Water Analysis Handbook, 3rd edition, copyright 1997. The procedure for “free chlorine” is identified in that publication as Method 8021 appearing on page 335, whereas the procedure for “total chlorine” is Method 8167 appearing at page 379. Briefly, the “free chlorine” test involves introducing to the halogenated water a powder comprising DPD indicator powder and a buffer. “Free chlorine” present in the water reacts with the DPD indicator to produce a red to pink coloration. The intensity of the coloration depends upon the concentration of “free chlorine” species present in the sample. This intensity is measured by a calorimeter calibrated to transform the intensity reading into a “free chlorine” value in terms of mg/L Cl2. Similarly, the “total chlorine” test also involves use of DPD indicator and buffer. In this case, KI is present with the DPD and buffer whereby the halogen species present, including nitrogen-combined halogen, reacts with KI to yield iodine species which turn the DPD indicator to red/pink. The intensity of this coloration depends upon the sum of the “free chlorine” species and all other halogen species present in the sample. Consequently, this coloration is transformed by the colorimeter into a “total chlorine” value expressed as mg/L Cl2.
DBDAH and BCDMH Test Procedure • 1. To determine the amount of species present in the water which respond to the “free chlorine” and “total chlorine” tests, the water sample should be analyzed within a few minutes of being taken, and preferably immediately upon being taken. • 2. Hach Method 8021 for testing the amount of species present in the water sample which respond to the “free chlorine” test involves use of the Hach Model DR 2010 calorimeter. The stored program number for chlorine determinations is recalled by keying in “80” on the keyboard, followed by setting the absorbance wavelength to 530 nm by rotating the dial on the side of the instrument. Two identical sample cells are filled to the 10 mL mark with the water under investigation. One of the cells is arbitrarily chosen to be the blank. Using the 10 mL cell riser, this is admitted to the sample compartment of the Hach Model DR 2010, and the shield is closed to prevent stray light effects. Then the ZERO key is depressed. After a few seconds, the display registers 0.00 mg/L Cl2. To second cell, the contents of a DPD Free Chlorine Powder Pillow are added. This is shaken for 10-20 seconds to mix, as the development of a pink-red color indicates the presence of species in the water which respond positively to the DPD test reagent. Within one minute of adding the DPD “free chlorine” reagent to the 10 mL of water in the sample cell, the blank cell used to zero the instrument is removed from the cell compartment of the Hach Model DR 2010 and replaced with the test sample to which the DPD “free chlorine” test reagent was added. The light shield is then closed as was done for the blank, and the READ key is depressed. The result, in mg/L Cl2 is shown on the display within a few seconds. This is the “free chlorine” level of the water sample under investigation. • 3. Hach Method 8167 for testing the amount of species present in the water sample which respond to the “total chlorine” test involves use of the Hach Model DR 2010 calorimeter. […]

[2] = dosed to 1 mg/L as total chlorine, Time 0 hr
[3] = Time 0.5 hr, percentage of Time 0 value
[4] = Time 1 hr, percentage of Time 0 value
[5] = Time 1.5 hr, percentage of Time 0 value
[6] = Time 2 hr, percentage of Time 0 value
[7] = Time 3 hr, percentage of Time 0 value
[8] = Time 4 hr, percentage of Time 0 value
[9] = Time 5 hr, percentage of Time 0 value
[10] = Time 6 hr, percentage of Time 0 value

Free Cl2 [1, 2]: 98.8
Total Cl2 [1, 2]: 100
% hydrolysis to Free Cl2 ([1]; Time 0 hr): 98.8%
% hydrolysis to Free Cl2 ([1]; Time 0.5 hr): 95.6%
Free Cl2 [1, 3]: 100%
Total Cl2 [1, 3]: 104%
% hydrolysis to Free Cl2 ([1]; Time 1 hr): 97.3%
Free Cl2 [1, 4]: 85.1%
Total Cl2 [1, 4]: 87.3%
% hydrolysis to Free Cl2 ([1]; Time 1.5 hr): 100%
Free Cl2 [1, 5]: 87.3%
Total Cl2 [1, 5]: 87.3%
% hydrolysis to Free Cl2 ([1]; Time 2 hr): 97.2%
Free Cl2 [1, 6]: 81.6%
Total Cl2 [1, 6]: 83.9%
% hydrolysis to Free Cl2 ([1]; Time 3 hr): 93.8%
Free Cl2 [1, 7]: 70.1%
Total Cl2 [1, 7]: 74.7%
% hydrolysis to Free Cl2 ([1]; Time 4 hr): 93.8%
Free Cl2 [1, 8]: 65.5%
Total Cl2 [1, 8]: 66.6%
% hydrolysis to Free Cl2 ([1]; Time 5 hr): 96.4%
Free Cl2 [1, 9]: 60.1%
Total Cl2 [1, 9]: 63.2%
% hydrolysis to Free Cl2 ([1]; Time 6 hr): 96.3%
Free Cl2 [1, 10]: 59.8%
Total Cl2 [1, 10]: 62%
“total chlorine” level higher than the “free chlorine level” of the water ([1]; water of pH of at least 8 freshly treated): no more than 10%
Structure (SMILES): CC1(C)C(=O)N(Br)C(=O)N1Br [DBDMH, 1,3-dibromo-5,5-dimethylhydantoin]
planktonic plate counts (planktonic bacteria): less than 10^4 CFU/mL
